PMC6757289, “Design and Characterization of SGK3-PROTAC1, an Isoform Specific SGK3 Kinase PROTAC Degrader” (ACS Chemical Biology, 2019)

Legend:
[1] = tested on: SDC2; assay: TMT global proteomic analysis of HEK293 cells; format: cell-based, Homo sapiens; settings: HEK293, 0.3 μM, 8 h
Description: (§1) To establish the specificity of SGK3-PROTAC1 employing an unbiased approach, we performed quantitative Tandem–Mass–Tag (TMT)-labeled global proteomic analysis of HEK293 cells treated in the presence or absence of 0.3 μM SGK3-PROTAC1 compared to either 0.3 μM cisSGK3-PROTAC1 or DMSO for 8 h. Experiments were undertaken in triplicate, and analysis in Proteome Discoverer v2.2 using the Mascot search engine allowed relative quantification of 8766 proteins.
(§2) Figure 4 TMT proteomic analysis of HEK293 cells treated with SGK3-PROTAC1. (A) Cells were treated with DMSO (control), SGK3-PROTAC1 (0.3 μM), or cisSGK3-PROTAC1 (0.3 μM) for 8 h and lysed. Lysates were subjected to immunoblot analysis with the indicated antibodies. (B) Lysates were examined by quantitative proteomics. […]
(§3) Cell culture and proteomic sample preparation
(§4) Cells pellets were lysed with 2 ml of lysis buffer (8 M Urea, 50 mM Ammonium bicarbonate containing protease inhibitor and phosphatase inhibitor). The sample were left on ice for 15 min and were then sonicated for 5 min in ice-cold water bath under high intensity with 30 sec on and off. After sonication, benzonase® endonuclease (Merck Millipore) with the volume ratio of 1: 100 were added into the lysate to degrade DNA and RNA. The lysate were then centrifuged at 12,000 rpm for 15 min at 4 °C, and supernatants were transferred into new eppendorf tubes. The protein concentration were measured with BCA assay (Pierce™ BCA Protein Assay Kit, Thermo). The lysate from each sample was reduced with 5 mM DTT at 45 °C for 30 min. Lysates were briefly centrifuged and were cool down to room temperature before alkylation in the dark with 10 mM iodoacetamide at room temperature. The alkylation was then quenched by the addition of 5 mM DTT. Samples were first digested by Lys-C with the weight ratio of 1:200 (w/w) for 4 h at 30 °c. Then, sample were diluted with 50 mM ammonium bicarbonate to 1.5 M Urea concentration. Samples were then digested with trypsin (Pierce trypsin, Thermo) at an enzyme to protein ratio of 1:50 (w/w) at room temperature with gentle shaking for overnight.
(§5) The digest was stopped by the addition of 1% TFA (v/v), centrifuged at 10,000 g for 10 min at room temperature.
(§6) The supernatant were desalted on 200 mg SepPak tC18 cartridge (Waters). Desalted peptides were dried by vacuum centrifugation using Speedvac (Thermo).
(§7) TMT labelling and Basic C18 reverse phase (bRP) chromatography fractionation Each sample (200 μg of peptides each) was re-suspended in 100 μL of 100 mM TEAB buffer. The TMT labelling reagents were equilibrated to room temperature and 41 μL anhydrous acetonitrile was added to each reagent channel and softly vortexed for 10 min. Peptides were transferred to the corresponding TMT channels and incubated for 1 h at room temperature. The reaction was quenched with 8 μL of 5% hydroxylamine. To ensure complete labelling, 1 µg of labelled samples from each channel were analyzed by LC-MS/MS prior to mix. After evaluation, the complete TMT labelled 9 samples were then combined, acidified and dried. Sep-Pak desalting was then performed and the elution was dried to completeness.
(§8) Ultimate 3000 high-pressure liquid chromatography (HPLC) system (Dionex) were used for basic C18 reverse phase chromatography fractionation operating at 569 µL/min with two buffers: buffer A (10 mM ammonium formate, pH 10) and buffer B (80% ACN, 10 mM ammonium formate, pH 10). The desalted mixture of TMT-labelled peptides were resuspended in 200 µL of buffer A (10 mM ammonium formate, pH10) and separated on a C18 reverse phase column (4.6 × 250 mm, 3.5 μm, Waters) with a gradient from 3% B to 12.5 % B in 10 min, […]
(§9) min, 100% for 5 min, ramping to 3% B in 2.5 min and then 3% for 10 min. A total of 90 fractions (1 min per fraction) were collected before further concatenation into 30 final fractions. Each fraction was then dried and desalted over a C18 StageTip prior to analysis by mass spectrometry. […]

[2] = tested on: MOXD1; assay: TMT global proteomic analysis of HEK293 cells; format: cell-based, Homo sapiens; settings: HEK293, 0.3 μM, 8 h
Description: as §1, §2, §3, §4, §5, §6, §7, §8, §9

[3] = tested on: S100A7; assay: TMT global proteomic analysis of HEK293 cells; format: cell-based, Homo sapiens; settings: HEK293, 0.3 μM, 8 h
Description: as §1, §2, §3, §4, §5, §6, §7, §8, §9

[4] = tested on: ZR-75-1 cells; assay: Cell growth (confluency, Incucyte S3); format: cell-based; settings: for growth in combination with GDC0941 or AZD5363: 1 μM GDC0941 or AZD5363, SGK3-PROTAC1/cisSGK3-PROTAC1 0.3 μM, 14H 3 μM
Description: (§10) Figure 6 SGK3-PROTAC1-mediated degradation of SGK3 further inhibiting the growth of cancer cell lines treated with PI3K-Akt pathway inhibitors. CAMA-1 (A, C) and ZR-75-1 (B, D) were treated with compounds as indicated either as monotherapy or in combination, and confluency was measured on the Incucyte S3 every 4 h for up to 4 weeks.
(§11) For growth assays, ZR-75-1 cells were seeded in 96-well plates at a density of 6000 cells/well and left to adhere overnight. Cells were then treated with compounds as described in the figure legends and imaged every 4 h on the Incucyte S3 (Essen Bioscience) for up to 4 weeks to give a measure of cell confluency. Media were refreshed every 4–5 days.
(§12) Supplementary Figure S3. SGK3-PROTAC compounds have no effect on cell growth. CAMA-1 and ZR-75-1
(§13) confluency was m easured every 4 h on Incucyte S3.
(§14) (1 picture or pasted object on this page, not shown here)

[5] = tested on: CAMA-1 cells; assay: Cell growth (confluency, Incucyte S3); format: cell-based; settings: for growth in combination with GDC0941 or AZD5363: 1 μM GDC0941 or AZD5363, SGK3-PROTAC1/cisSGK3-PROTAC1 0.3 μM, 14H 3 μM
Description: as §10, §11, §12, §13, §14

Row | Compound | Abundances (Grouped) [1] | Ratio: (SGK3-PROTAC1) / (cSGK3-PROTAC1) [1] | Ratio: (compound) / (DMSO) [1] | Abundances (Grouped) [2] | Ratio: (SGK3-PROTAC1) / (cSGK3-PROTAC1) [2] | Ratio: (compound) / (DMSO) [2] | Abundances (Grouped) [3] | Ratio: (SGK3-PROTAC1) / (cSGK3-PROTAC1) [3] | Ratio: (compound) / (DMSO) [3] | growth, compound alone ([4]; ZR-75-1) | suppression of growth compared with 14H (3 μM) ([4]; ZR-75-1, 0.3 μM, with AZD5363 1 μM) | inhibition of cell growth compared with 14H (3 μM) ([4]; ZR-75-1, 0.3 μM, with GDC0941 1 μM) | growth in combination with GDC0941 or AZD5363 ([4]; ZR-75-1) | growth, compound alone ([5]; CAMA-1) | suppression of growth compared with 14H (3 μM) ([5]; CAMA-1, 0.3 μM, with AZD5363 1 μM) | inhibition of cell growth compared with 14H (3 μM) ([5]; CAMA-1, 0.3 μM, with GDC0941 1 μM) | growth in combination with GDC0941 or AZD5363 ([5]; CAMA-1)
1 | Cc1ccc(F)c(S(=O)(=O)Nc2ccc(-c3nc(OC[C@H]4CN(CCCCCCOCCOCCOCC(=O)N[C@H](C(=O)N5C[C@H](O)C[C@H]5C(=O)NCc5ccc(-c6scnc6C)cc5)C(C)(C)C)CCO4)c4cn[nH]c4n3)cc2)c1 [SGK3-PROTAC1] | 106.6 | 2.505 | 0.665 | 90.2 | 1.082 | 0.713 | 90.9 | 1.014 | 0.645 | no effect on growth | to a similar extent | to a greater extent | further reduced the growth | no effect on growth | to a similar extent | to a greater extent | further reduced the growth
2 | Cc1ccc(F)c(S(=O)(=O)Nc2ccc(-c3nc(OC[C@H]4CN(CCCCCCOCCOCCOCC(=O)N[C@H](C(=O)N5C[C@@H](O)C[C@H]5C(=O)NCc5ccc(-c6scnc6C)cc5)C(C)(C)C)CCO4)c4cn[nH]c4n3)cc2)c1 [cisSGK3-PROTAC1] | 37.8 |  | 0.266 | 83.4 |  | 0.656 | 90.1 |  | 1.695 |  |  |  | minimal effect |  |  |  | minimal effect
